Eight compounds from ChEMBL document CHEMBL1909569 (Bioorg Med Chem Lett, 2011) can be followed below.

Experiment [1] can be described thus: (§1) Inhibition of Mycobacterium tuberculosis expressing RNA polymerase RpoB S450L mutant after 10 mins using ribo green by rolling circle transcription assay.
In experiment [2] the test system is Mycobacterium tuberculosis. The description is as §1.
Experiment [3] relates to Mycobacterium tuberculosis. Nature of the experiment: Ratio of compound MIC90 to Rifamycin S MIC90 for Mycobacterium tuberculosis RNA polymerase RpoB S450L mutant.
The test system of experiment [4] is Mycobacterium tuberculosis. Nature of the experiment: Ratio of compound MIC90 to Rifampin S MIC90 for Mycobacterium tuberculosis RNA polymerase RpoB S450L mutant.

A word on the IC50: it is the concentration at which inhibition is half-maximal. `CO[C@H]1/C=C/O[C@@]2(C)Oc3c(C)c(O)c4c(c3C2=O)C(=O)C(/C=N/N2CCN(C)CC2)=C(NC(=O)/C(C)=C\C=C\[C@H](C)[C@H](O)[C@@H](C)[C@@H](O)[C@@H](C)[C@H](OC(C)=O)[C@@H]1C)C4=O` [RIFAMPIN S] registered an IC50 in experiment [1] of 46.5 µM. The compound further gave a logIC50 in experiment [2] of 1.67.

In experiment [1], `CO[C@H]1/C=C/O[C@@]2(C)Oc3c(C)c(OS(=O)(=O)c4ccc(C)cc4)c4c(c3C2=O)C(=O)C=C(NC(=O)/C(C)=C\C=C\[C@H](C)[C@H](O)[C@@H](C)[C@@H](O)[C@@H](C)[C@H](OC(C)=O)[C@@H]1C)C4=O` showed an IC50 of 982 µM. Besides, the logIC50 in experiment [2] came out at 2.99. For the same compound, the Ratio in experiment [3] came to 5.

For `CO[C@H]1/C=C/O[C@@]2(C)Oc3c(C)c(O)c4c(c3C2=O)C(=O)C=C(NC(=O)/C(C)=C\C=C\[C@H](C)[C@H](O)[C@@H](C)[C@@H](O)[C@@H](C)[C@H](OC(C)=O)[C@@H]1C)C4=O` [RIFAMYCIN S], 36 µM corresponded to half-maximal inhibition in experiment [1] (IC50). Moreover, the logIC50 in experiment [2] turned out to be 1.56.

In turn, `CO[C@H]1/C=C/O[C@@]2(C)Oc3c(C)c(SC)c4c(c3C2=O)C(=O)C=C(NC(=O)/C(C)=C\C=C\[C@H](C)[C@H](O)[C@@H](C)[C@@H](O)[C@@H](C)[C@H](OC(C)=O)[C@@H]1C)C4=O` came in with an IC50 in experiment [1] of 37.5 µM. The compound also yielded a logIC50 in experiment [2] of 1.57.

Compound `CO[C@H]1/C=C/O[C@@]2(C)Oc3c(C)c(NC4CCCCCC4)c4c(c3C2=O)C(=O)C=C(NC(=O)/C(C)=C\C=C\[C@H](C)[C@H](O)[C@@H](C)[C@@H](O)[C@@H](C)[C@H](OC(C)=O)[C@@H]1C)C4=O` had an IC50 in experiment [1] of 127 µM. This compound came in with a logIC50 in experiment [2] of 2.1. For the same compound, the Ratio IC50 in experiment [4] is 3.

In the case of `CO[C@H]1/C=C/O[C@@]2(C)Oc3c(c4c5c(nn(CCO)c5c3C)C(=C(/C=N/N3CCN(C)CC3)C4=O)NC(=O)/C(C)=C\C=C\[C@H](C)[C@H](O)[C@@H](C)[C@@H](O)[C@@H](C)[C@H](OC(C)=O)[C@@H]1C)C2=O`, the midpoint of inhibition in experiment [1], the IC50, lay at 29.9 µM. The logIC50 in experiment [2] came out at 1.48.

In the case of `CO[C@H]1/C=C/O[C@@]2(C)Oc3c(C)c(N)c4c(c3C2=O)C(=O)C=C(NC(=O)/C(C)=C\C=C\[C@H](C)[C@H](O)[C@@H](C)[C@@H](O)[C@@H](C)[C@H](OC(C)=O)[C@@H]1C)C4=O`, half-maximal inhibition in experiment [1] (IC50) required 186 µM. The same compound registered a logIC50 in experiment [2] of 2.27. Also, the Ratio IC50 in experiment [4] is 3.

In experiment [1], `CO[C@H]1/C=C/O[C@@]2(C)Oc3c(C)c(N(C)C)c4c(c3C2=O)C(=O)C=C(NC(=O)/C(C)=C\C=C\[C@H](C)[C@H](O)[C@@H](C)[C@@H](O)[C@@H](C)[C@H](OC(C)=O)[C@@H]1C)C4=O` came in with an IC50 of 270 µM. Further, the logIC50 in experiment [2] came to 2.43. Further, the Ratio IC50 in experiment [4] worked out at 3.
